Data published in patent publication US6908734B2, “Sulfated CCR5 peptides for HIV-1 infection” (priority 2000, dated 2005).
Entries after “also recorded” stand apart in the source; their conditions may differ. Where no end group is shown, it is not given here. [ ]: non-standard residue; d: D form. The star is where a group is joined. Biotin = O=C1N[C@H]2[C@H](CS[C@H]2CCCCC(=O)*)N1; sY = N[C@@H](Cc1ccc(OS(=O)(=O)O)cc1)C(=O)O; pY = N[C@@H](Cc1ccc(OP(=O)(O)O)cc1)C(=O)O

Assays:
gp120JR-FL/CD4-IgG2 = experiment: CCR5 Nt peptide ELISA with gp120JR-FL/CD4-IgG2; format: binding, HIV-1; conditions: for Avidity for gp120JR-FL/CD4-IgG2 relative to 2-18 (fold lower): ELISA; for Binding of gp120JR-FL/CD4-IgG2 to peptide (ELISA): peptide 1 μg/ml on streptavidin plate
Protocol: Streptavidin-coated ELISA plates (Pierce, Rockford, Ill.) were blocked with D-PBS/5% BSA for 2 hours at room temperature then washed three times with assay buffer (D-PBS/0.5% Tween 20/1% Fetal Bovine Serum/2% BSA). Plates were then contacted with sulfo- or phospho-peptides (1 μg/ml) for 1 hour at room temperature and washed three times with assay buffer. […] The plates were developed using the TMB substrate as described above.

[1] = target: T1, gp120JR-FL/CD4-IgG2 binding to the sulfopeptide 2-18 (Homo sapiens, UniProt P51681); experiment: Competition ELISA: gp120JR-FL/CD4-IgG2 binding to sulfopeptide 2-18; set-up: species or system HIV-1; conditions: complex 1 nM, up to supraphysiologic concentrations
T1 construct: a peptide spanning CCR5 residues 2-18 and containing sulfotyrosines in positions 10 and 14; host or cells: peptide synthetic
Protocol: In a competition ELISA, peptides were captured onto the plates as described above. Inhibitor or assay buffer was added for 1 h prior to addition of gp120JR-FL/CD4-IgG2 complex (1 nM) for an additional h at room temperature. The assay was then completed as described above. Direct binding of anti-CCR5 murine MAbs to the peptides was examined as described above except that MAb was substituted for gp120/CD4-IgG2 complex and a goat anti-mouse HRP-coupled antibody was used for detection.

[2] = test system: gp120JR-FL/CD4-IgG2 complex binding to CCR5; experiment: Inhibition of gp120JR-FL/CD4-IgG2 complex binding to L1.2-CCR5+ cells (flow cytometry); format: cell-based, HIV-1; conditions: gp120 100 nM, biotinylated CD4-IgG2 50 nM, different concentrations of peptide
Protocol: A gp120/CD4 complex formed from monomeric gp120 (100 nM) and biotinylated CD4-IgG2 (50 nM) was added to 1×10^6 L1.2-CCR5^+ cells in the presence of different concentrations of peptide (Olson et al. J. Virol. 73:4145, 1999). CD4-IgG2 is tetrameric and therefore binds four molecules of gp120, which increases binding of the complex to CCR5 (Allaway et al. AIDS Res. Hum. Retroviruses 11:533, 1995). The mean fluorescence intensity (m.f.i.) was measured by flow cytometry after addition of phycoerythrin (PE)-labeled streptavidin (Becton Dickinson, San Jose, Calif.). Inhibition of gp120/CCR5 binding was calculated: […].

PA10 binding to CCR5 = experiment: Inhibition of anti-CCR5 MAb PA10 binding to L1.2-CCR5 cells; format: cell-based, mouse; conditions: MAb 50 nM, peptide 100 μM
Protocol: L1.2-CCR5 cells (1×10^6) were incubated with anti-CCR5 MAb (50 nM)±peptide (100 μM). MAb binding was detected using a PE-labeled goat anti-mouse antibody (Caltag Laboratories, Burlingam, Calif.). The m.f.i value was measured by flow cytometry as described (Olson et al. J. Virol. 73:4145, 1999). MAb binding was calculated as above.

gp120JR-FL/sCD4 = experiment: BIAcore: gp120JR-FL/sCD4 binding to immobilized biotinylated CCR5 Nt peptide; set-up: species or system HIV-1; conditions: protein 100 nM; 400 RU biotinylated peptide on streptavidin chip
Protocol: (§1) Streptavidin-coated sensor chips (BIAcore AB, Sweden) were conditioned with five injections of regeneration solution (1M NaCl, 50 mM NaOH) and equilibrated with HBS-EP buffer (10 mM HEPES, 150 mM NaCl, […], 0.005% polysorbate 20) as recommended by the manufacturer. Biotinylated peptides were then immobilized on the chip by injection of peptide (100 nM) in HBS-EP buffer, followed by an injection of regeneration solution and equilibration with HBS-EP buffer. 400 resonance units (RU) of peptide were bound to the sensor chip surface. Solutions of the following proteins (100 nM) were passed over the sensor chip surface: gp120, sCD4, gp120/sCD4, PA8, PA10 and 2D7. […] Following injection of each solution the chip was regenerated and equilibrated as described above.
Biotinylated peptide was attached to the streptavidin-coated gold surface of a sensor chip and solutions containing different gp120/sCD4 complexes were flowed over the immobilized peptide. Adsorption of the complex due to complex/peptide binding was detected by an increase in surface plasmon resonance signal (RU), which reports changes in the effective refraction index very near the gold surface of the sensor chip (Schuck Ann. Rev. Biophys Biomol Struct 26:541, 1997). […]
Binding of gp120/CD4-IgG2 complex and MAbs to CCR5 Nt-based peptides was measured as previously described. […]

PA10 = experiment: BIAcore: PA10 on immobilized peptide; format: binding, mouse; conditions: MAb 100 nM
Protocol: as §1

6-16: CCR5 residues 6-16, sulfotyrosines in positions 10 and 14, GAG spacer, biotinylated lysine (SSPI[sY]DIN[sY]YTGAG-{K(biotin)}; UniProt P51681 6-16, looked up, fragment)
Avidity for gp120JR-FL/CD4-IgG2 relative to 2-18 (fold lower) (gp120JR-FL/CD4-IgG2): at least ten-fold less avidly

8-15: CCR5 residues 8-15, sulfotyrosines in positions 10 and 14, GAG spacer, biotinylated lysine (PI[sY]DIN[sY]YGAG-{K(biotin)}; UniProt P51681 8-15, looked up, fragment)
Avidity for gp120JR-FL/CD4-IgG2 relative to 2-18 (fold lower) (gp120JR-FL/CD4-IgG2): at least ten-fold less avidly

10-18(11A/18A): peptide 10-18 with residues Asp-11 and Glu-18 substituted for alanines ([sY]AIN[sY]YTSA; not fully specified (C-terminus); UniProt P51681 10-18, looked up, variant D11A E18A)
Binding of gp120JR-FL/CD4-IgG2 to peptide (ELISA) (gp120JR-FL/CD4-IgG2): only weakly bound

10-18: CCR5 residues 10-18 (YDINYYTSE), sulfotyrosines in positions 10 and 14, GAG spacer, biotinylated lysine ([sY]DIN[sY]YTSEGAG-{K(biotin)})
Avidity for gp120JR-FL/CD4-IgG2 relative to 2-18 (fold lower) (gp120JR-FL/CD4-IgG2): ~3 fold
Binding of gp120JR-FL/CD4-IgG2 to peptide (ELISA) (gp120JR-FL/CD4-IgG2): significant binding; also recorded: avidly bound

MIP-1α: CC-chemokine known to bind CCR5
Inhibition of gp120JR-FL/CD4-IgG2 binding to the sulfopeptide 2-18 [1]: not inhibited

RANTES: CC-chemokine known to bind CCR5
Inhibition of gp120JR-FL/CD4-IgG2 binding to the sulfopeptide 2-18 [1]: not inhibited

S-3/10/14: tyrosine-sulfated peptide spanning amino acids 2-18 of the CCR5 Nt, sulfo-tyrosines in positions 3, 10 and 14 (D[sY]QVSSPI[sY]DIN[sY]YTSE; UniProt P51681 2-18, looked up, fragment)
Inhibition of gp120JR-FL/CD4-IgG2 binding to CCR5+ cells [2]: inhibited complex binding to the cells in a dose-dependent manner
Inhibition of PA10 binding to CCR5+ cells (PA10 binding to CCR5): inhibited

S-10/14: tyrosine-sulfated peptide spanning amino acids 2-18 of the CCR5 Nt, sulfo-tyrosines in positions 10 and 14 (DYQVSSPI[sY]DIN[sY]YTSE; UniProt P51681 2-18, looked up, fragment)
Inhibition of gp120JR-FL/CD4-IgG2 binding to CCR5+ cells [2]: inhibited complex binding to the cells in a dose-dependent manner

S-10: peptide spanning amino acids 2-18 of the CCR5 Nt, sulfo-tyrosine in position 10 (DYQVSSPI[sY]DINYYTSE; UniProt P51681 2-18, looked up, fragment)
Inhibition of gp120JR-FL/CD4-IgG2 binding to CCR5+ cells [2]: no inhibitory activity

S-14: peptide spanning amino acids 2-18 of the CCR5 Nt, sulfo-tyrosine in position 14 (DYQVSSPIYDIN[sY]YTSE; not fully specified; UniProt P51681 2-18, looked up, fragment)
Inhibition of gp120JR-FL/CD4-IgG2 binding to CCR5+ cells [2]: no inhibitory activity

TS-10/14: peptide spanning amino acids 10-14 of CCR5, two sulfo-tyrosine residues ([sY]DIN[sY])
Inhibition of gp120JR-FL/CD4-IgG2 binding to CCR5+ cells [2]: did not inhibit

bP-10/14: biotinylated version of P-10/14 with C-terminal GAG spacer preceding a biotinylated lysine; apparently as 2-18(P) (DYQVSSPI[pY]DIN[pY]YTSEGAGK(Biotin))
Association of gp120JR-FL/sCD4 complex with immobilized peptide (RU) (gp120JR-FL/sCD4): complete lack of association

bS-10/14: biotinylated version of S-10/14 with C-terminal GAG spacer preceding a biotinylated lysine; apparently as 2-18 (DYQVSSPI[sY]DIN[sY]YTSEGAGK(Biotin))
Association of gp120JR-FL/sCD4 complex with immobilized peptide (RU) (gp120JR-FL/sCD4): significant increase in RU
Association of PA10 with immobilized peptide (BIAcore) (PA10): associate

B1: MIP-1β: CC-chemokine known to bind CCR5 (protein, UniProt P13236 24-92, looked up)
C-C motif chemokine 4: APMGSDPPTACCFSYTARKLPRNFVVDYYETSSLCSQPAVVFQTKRSKQVCADPSESWVQEYVYDLELN
Inhibition of gp120JR-FL/CD4-IgG2 binding to the sulfopeptide 2-18 [1]: not inhibited
